Assay results published in patent publication US5087712A, “Derivatives of platinum (II) with polymethylsiloxane, method for preparing same and antitumor agent based thereon” (priority 1989, dated 1992).

What was measured:
[1] = tested on: ovary carcinoma; details: in combination with vinblastin, actinomycin and prednisolone; cited from earlier work
[2] = tested on: ovary cancer; experiment: Clinical tests in patients with ovary cancer of the IV clinical stage; format: in vivo, human patients
Excerpt: Depending on the treatment method all the patients were divided into 2 groups.

[3] = tested on: regrafted Schvetz's erythroleukosis; experiment: Antitumor activity against regrafted Schvetz's erythroleukosis in rats; format: in vivo, white non-descript rats
Method: Their antitumor activity was studies in respect of regrafted Schvetz's erythroleukosis. The antitumor activity of each of the compounds according to the present invention was assessed from the experiments carried out on white non-descript rats with a mass of 150-200 g (10 animals in a group). The animals were hypodermally inoculated (in the thigh) with 2×10^8 cells of a regrafted Schvetz's erythroleukosis strain. On the 4th day after inoculation of the tumor cells, i.e. during the period of the lograithmic phase of the tumor growth the animals were administered with the compounds according to the present invention. They were administered once intraperitoneally or directly into the tumor node as powders. The compounds according to the present invention were administered in maximum effective and minimum effective doses:
The antitumor effect of the compounds according to the present invention was studies in comparison with the control and with the known preparations--CDDP and polymethylsiloxane.
The administered dose of CDDF was 8.1 mg/kg, that of polymethylsiloxane--4,000 mg/kg. […] Polymethylsiloxane was introduced in the form of a powder. Prior to administration the powders of polymethylsiloxane and of the compounds according to the present invention were sterilized by autoclaving in sealed flasks or in package from parchment paper for one hour under the excessive pressure of 1.0 atm and at the temperatuer of 100° C.
The animals were narcotized by way of a hypodermal injection of hexenal in a dose of from 40 to 60 mg/kg in the case of an intraperitoneal adminsitration of the compounds according to the present invention. […]
The antitumor activity of the test compounds was assessed for the following biological characteristics; the degree of inhibition of the tumor growth, survival of animals on the 10th day after inoculation of the tumor cells, life span of the animals.

[4] = tested on: inner organs; experiment: Autopsy, morphological and histological investigations of inner organs; format: in vivo, rats; mice; details: doses lesser than the toxic one, 30th day after administration
Method: The dead animals were subjected to an autopsy and morpholigical and histological investigations of the inner organs were performed. The animals administered with the compounds in doses lesser than the toxic one were slaughtered after 3, 7, 14 and 30 days. Their inner organs were also subjected to an autopsy.

[5] = tested on: cell immunity; experiment: Effect on cell immunity: time of rejection of a skin graft in tumor-carriers; format: in vivo, male rats of the Vistar line
Method: (§1) The immunological activity of the compound II according to the present invention was studied by variation of the characteristics of cellular and humoral immunity.
(§2) The effect of the compound II according to the present invention on the cell immunity was assessed by the time of rejection of a skin graft in the tumor-carriers. The effect on the humoral immunity was assessed by the number of antibody-forming cells in the spleen and antibodies in the blood serum formed in response to immunization, with ram ertyhrocytes, of both intact animals and the tumor-carriers.
The effect of the compound II according to the present invention on the cell immunity was studied on male rats of the Vistar line with a mass of 150-200 g. The animals were subjected to transplantation, by a standard method, of a skin graft of 2×3 cm size taken from rats of the August line. Then the animals were inoculated, under the thigh skin, with 2×10^8 cells of a regrafted strain of Schvetz's erythroleukosis.
CDDP was administered in a solution, while polymethylsiloxane and the compound II of the present invention--as a powder which was introduced into an opened abdominal cavity following to above-described procedure. The intact animals were used as a control. The time of rejection of the skin graft was fixed by variation of its temperature, colour and elasticity.

[6] = tested on: humoral immunity; experiment: Effect on humoral immunity: antibody-forming cells in spleen and antibodies in blood serum of tumor-carriers; format: in vivo, rats of the Vistar line
Method: as §1, §2
Use was made of rats of the Vistar line which were incoulated, under the thigh skin, with 2×10^8 cells of a regrafted strain of Schvetz'erthroleukosis. […] On the 8th day after regrafting of the tumor the animals were subjected to immuniation by way of an intravenous administration of ram erythrocytes in the dose of1×10^6 cells. 4 days after immunization the animals were slaughtered by decapitation against the background of ethereal narcosis, the spleen was taken out and the content of antobidy-forming cells was determined threein by Erne'method, as well as titres of agglutinines and hemolysines in the peripheral blood using known methods.
The content of antibody-forming cells was determined for 10^6 splenocytes and for the entire mass of the spleen.

[7] = group I: compound II then CDDP, 1 year after operation, group II: CDDP only, 9 months-1 year
[8] = group I: compound II then CDDP, 2-3.5 years after the operation, group II: CDDP only
[9] = 4 days after immunization with ram erythrocytes

What does the source list for `N.N.[Cl][Pt][Cl]` [CDDP, cis-dichlorodiammonioplatinum (II)]?
Effectiveness of therapy of ovary carcinoma [1]: 100%; Full remission, number of patients ([2]; group I (30): compound II then CDDP, group II (47): CDDP only): 14 patients; Full remission, share of patients ([2]; group I (30 patients): compound II during operation then intraperitoneal CDDP, 2-3.5 years, group II (47 patients): CDDP only): 30%; Deaths, number of patients [2, 7]: 9 persons; Deaths, share of patients [2, 7]: 19%; Partial remission and stabilization of the process, number of patients [2, 8]: 14 persons; Partial remission and stabilization of the process, share of patients [2, 8]: 30%; Recurrence of the tumor growth, number of patients ([2]; group II: CDDP only): 10 persons; Recurrence of the tumor growth, share of patients ([2]; group II: CDDP only): 21%; Survival of animals ([3]; on the 10th day after inoculation of the tumor cells): 80%; Life span ([3]; rats with Schvetz's erythroleukosis): 11.5 ± 0.5 days; Degree of inhibition of the tumor growth ([3]; rats, single intraperitoneal or intratumoral administration on 4th day after inoculation): 78%; Degree and restoration of histological changes [4]: pronounced to even greater extent than in the case of administration of the compounds according to the present invention, they were only partly restored on the 30th day after administration; Effect on characteristics of the cell immunity of tumor-carriers (in words) [5]: does not substantially affect the characteristics of the cell immunity of the tumor-carriers; Time of rejection of a skin graft ([5]; intraperitoneal CDDP 5.6, polymethylsiloxane 2,000, compound II 550 mg/kg): 13.5 ± 0.5 days; Effect on humoral immunity (in words) [6]: inhibits the humoral immunity; Content of antibody-forming cells for the entire spleen [6, 9]: (36.42 ± 2.15) × 10^3; Content of antibody-forming cells per 10^6 of splenocytes [6, 9]: 20.50 ± 2.15
